Test results: US20180344768A1, “NK CELL-BASED THERAPY” (Onkimmune Limited, priority 2016, published 2018)

Columns and labels:
K562 cells = assay: Inhibition of KHYG-1 cell cytotoxicity by IL-6, flow cytometry; assay type: cell-based; details: K562, IL-6 100 ng/mL
Method: (§1) KHYG-1, RPMI8226, MM1.S and K562 cells were cultured and maintained as described above. Cells were harvested in log phase, washed and re-suspended in pre-warmed appropriate mediums, before adjusting the cell concentration to 1 million/mL. The concentration of target cells was adjusted according to the E:T (effector: target) ratio. 0.5 mL KHYG-1 cells and 0.5 mL target cells were added to one well of a 24-well plate. IL-6 was added to the wells at final concentration of 100 ng/mL. The plates were then placed in a humidified 37° C./5% CO2 incubator for 12 hours (6 or 4 hours for K562 cells). The same mixture of KHYG-1 and target cells at time point 0 hr were used as a control.
(§2) Flow cytometry was used to measure the cytotoxicity of KHYG-1 cells. The co-cultured cells were collected (at different time points), washed and then stained with CD2-APC antibody (2.5 uL/test) first, then stained with AnnexinV-FITC (2.5 uL/test) and SYTOX-Green (0.5 uL/test) using AnnexinV binding buffer. Data were further analyzed using FlowJo 7.6.1 software. CD2-positive and CD2-negative gates were set which represent KHYG-1 cells and target cells, respectively. KHYG-1 cells were 100% positive for CD2, but K562, RPMI8226 and MM1.S cells were CD2-negative. Finally, the percentage of AnnexinV-FITC and SYTOX-Green positive cells (dead cells) in CD2-negative population was analyzed.

MM1.S cells = assay: as above; assay type: cell-based; details: IL-6 100 ng/mL, E:T 1:1, 12 hr incubation
Method: as §1, §2

RPMI8226 cells = assay: as above; assay type: cell-based; details: RPMI8226, IL-6 100 ng/mL, E:T 1:1, 12 hr incubation
Method: as §1, §2

[1] = system: NKG2A (inhibitory receptor); assay: Receptor expression on KHYG-1 cells after IL-6 stimulation; assay type: cell-based, human; details: 50 ng/mL IL-6 in the presence of IL-2, 24 hours
Source text: (§3) Negative control means FMO. APC anti-human NKG2D Antibody (catalog number #320807) was bought from Biolegend. APC anti-human NKG2A Antibody (catalog number FAB1059A) was bought from R&D systems.

[2] = system: NKG2D (activating receptor); assay: as above; assay type: cell-based, human; details: 50 ng/mL IL-6 in the presence of IL-2, 24 hours
Source text: as §3

PD-L1 = assay: Checkpoint ligand expression on MM cells treated with IL-6; assay type: cell-based, human; details: 100 ng/mL IL-6, 48 hours
Method: (§4) MM cells in log phase were seeded at 0.5 million/mL in RPMI1640 medium containing 10% FBS. A final concentration of 100 ng/mL IL-6 or same volume of vehicle (PBS) was used to treat MM cells for 48 hours. Then MM cells were harvested, washed, and stained with PD-L1 and PD-L2 antibodies (2.5 uL/test). Flow cytometric data were acquired using a FACS Canto II, and the results were further analyzed by […] 8.0.1 software.

PD-L2 = assay: as above; assay type: cell-based, human; details: 100 ng/mL IL-6, 48 hours
Method: as §4

[3] = system: p-STAT3, p-SHP1, p-SHP2, p-P44/42; assay: IL-6 / IL-2 signaling in KHYG-1 cells, gel electrophoresis; assay type: cell-based, human
Source text: PE labeled mouse anti-human CD126 (IL-6 receptor alpha chain) (Catalog: 551850), PE labeled mouse anti-human CD130 (gp130, IL-6 receptor-associated signal transducer) (Catalog #:555757), PE-labeled Mouse IgG1 k isotype control (Catalog: 555749), APC-labeled mouse anti-human CD2 (Catalog: 560642), FITC-labeled mouse anti-human CD2 (Catalog: 555326), APC-labeled mouse anti-human PD-L1 (Catalog: 563741) and APC-labeled mouse anti-human PD-L2 (Catalog: 557926) were bought from BD Pharmingen. APC-labeled mouse anti-human PD1 antibody (Catalog: 329907) was bought from Biolegend. Phosphor-Stat3(Ser727) mouse mAb (Catalog:9136), Phosphor-Shp-1(Tyr564) rabbit mAb (Catalog; 8849), Phosphor-Shp-2(Tyr580) rabbit mAb (Catalog: 5431), Phospho-p44/42 MAPK (Erk1/2) (Thr202/Tyr204) rabbit mAb (Catalog: 4370) and p44/42 MAPK (Erk1/2) rabbit mAb were bought from Cell Signaling Technology. Phosphor-Stat3(Tyr705) mouse mAb (Catalog: sc-81523) and rabbit anti-human Stat3 polyclonal antibody (Catalog: sc-7179) were bought from Santa Cruz Biotechnology. Mouse anti-beta actin (Catalog: A5441) was bought from SIGMA-ALDRICH. Functional IL-6 blocking antibody (Catalog: 501110) and the related isotype control antibody (Catalog: 400414) were bought from Biolegend.
KHYG-1 cells were cultivated and maintained as mentioned above.

[4] = KHYG-1 cells starved of IL-2 for 6 hours, cytokine alone (IL-2 10 ng/mL or IL-6 100 ng/mL)
[5] = KHYG-1 cells, IL-6 in the presence of IL-2

Substance: IL-6: Recombinant Human IL-6 (Catalog: 200-06) from PEPROTECH
- percentage of dead target cells co-cultured with KHYG-1 cells (K562 cells; E:T 1:1, 4 hr incubation): decreased
- percentage of dead target cells co-cultured with KHYG-1 cells (K562 cells; E:T 1:1, 6 hr incubation): decreased
- percentage of dead target cells co-cultured with KHYG-1 cells (MM1.S cells): decreased
- percentage of dead target cells co-cultured with KHYG-1 cells (RPMI8226 cells): decreased
- NKG2A expression [1]: increasing expression
- NKG2D expression levels [2]: decreasing expression levels
- PD-L1 expression (PD-L1; MM1.S cells): upregulation
- PD-L1 expression (PD-L1; NCI-H929 cells): upregulation
- PD-L1 expression (PD-L1; RPMI8226 cells): upregulation
- PD-L1 expression (PD-L1; U266 cells): upregulation
- PD-L2 expression (PD-L2; MM1.S cells): upregulation
- PD-L2 expression (PD-L2; NCI-H929 cells): upregulation
- PD-L2 expression (PD-L2; RPMI8226 cells): upregulation
- PD-L2 expression (PD-L2; U266 cells): upregulation
- p-P44/42 [3, 4]: decreased expression
- p-SHP1 [3, 4]: activated
- p-SHP2 [3, 4]: activated
- p-STAT3 [3, 4]: activated
- p-P44/42 expression [3, 5]: decreasing
- p-SHP1 expression [3, 5]: increasing
- p-SHP2 expression [3, 5]: increasing
